Assays:
[1] = Bleach indicator test; type: physicochemical; details: mixture with Reichardt's dye coated on SCOTT towel
[2] = test system: microbes in aged female human urine; assay: N-methylmerocyanine coated onto kitchen paper towel, aged urine
[3] = test system: budgerigar feces suspension; assay: N-methyl merocyanine coated paper towel, pet bird feces suspension; details: Atlanta city domestic tap water
Protocol: Budgerigar feces was collected from a caged pet budgie, and shaken in approximately 10 ml of Atlanta city domestic tap water. N-methyl merocyanine dye of structure 33 above was synthesized as described above.

[4] = test system: bacteria in aged chicken juice; assay: N-docosyl-merocyanine dye coated onto cotton fabric, aged chicken juice; details: 47 mg in 10 g dimethylformamide, supernatant on woven cotton
[5] = test system: bacteria in aged chicken juice; assay: Dye solution dropped onto aged chicken juice on SCOTT paper towel (comparative examples); details: comparative dye solution dropped onto aged chicken juice on SCOTT paper towel

Row | SMILES | color change on aged chicken juice [5] | other results
1 | Cc1cc(-c2cc(C)c(N)c(C)c2)cc(C)c1N [TMB, reference compound] | – | response of TMB to dilute bleach [1]: turning orange/yellow color
2 | COc1cc(/C=C/c2cc[n+](C)cc2)ccc1[O-] [N-methyl merocyanine dye] | – | color change with aged urine filtered through 0.2 micron filter ([2]; urine stored 24 hours at 37° C.): did not cause a color change; color change with aged urine filtered through 0.2 micron filter ([2]; urine stored 8 days at room temperature): did not cause a color change; color of coated towel with tap water control [3]: the area remained orange
3 | CCCCCCCCCCCCCCCCCCCCCC[n+]1ccc(C=Cc2ccc(O)cc2)cc1.[Br-] | – | color change of orange-yellow dye spots on cotton [4]: color change to very pale yellow
4 | CC(=O)Nc1ccc(/N=N/c2c(N)ccc3cc(S(=O)(=O)[O-])cc(O)c23)c(S(=O)(=O)[O-])c1.[Na+].[Na+] [Cl Acid Red 37] | No color changes were observed | –
5 | O=C([O-])C1=NN(c2ccc(S(=O)(=O)[O-])cc2)C(=O)C1N=Nc1ccc(S(=O)(=O)[O-])cc1.[Na+].[Na+].[Na+] (centres unmarked) [Cl Acid Yellow 23, tartrazine] | No color changes were observed | –
6 | CCN(CC)c1ccc2c(-c3ccc(S(=O)(=O)O)cc3S(=O)(=O)[O-])c3ccc(=[N+](CC)CC)cc-3oc2c1 [Cl Acid Red 52, sulforhodamine B] | No color changes were observed | –
7 | Cc1ccc(Nc2ccc(Nc3ccc(C)cc3S(=O)(=O)[O-])c3c2C(=O)c2ccccc2C3=O)c(S(=O)(=O)[O-])c1.[Na+].[Na+] [Cl Acid Green 25] | No color changes were observed | –
8 | O=C1/C(=C2\Nc3ccc(S(=O)(=O)[O-])cc3C2=O)Nc2ccc(S(=O)(=O)[O-])cc21.[Na+].[Na+] [Cl Acid Blue 74, Indigo Carmine] | No color changes were observed | –
9 | Cc1ccc(Nc2ccc(Nc3ccc(C)cc3S(=O)(=O)[O-])c3c2C(=O)c2c(O)ccc(O)c2C3=O)c(S(=O)(=O)[O-])c1.[Na+].[Na+] [Cl Acid Green 41] | No color changes were observed | –
